Earlier results, collected in patent US10398653B2, “Solid preparations containing tofogliflozin and process of producing the same” (CHUGAI SEIYAKU KABUSHIKI KAISHA, priority 2013, dated 2019).

Biological target: T1, SGLT2 (Homo sapiens, UniProt P31639)
T1 sequence (P31639 1-672): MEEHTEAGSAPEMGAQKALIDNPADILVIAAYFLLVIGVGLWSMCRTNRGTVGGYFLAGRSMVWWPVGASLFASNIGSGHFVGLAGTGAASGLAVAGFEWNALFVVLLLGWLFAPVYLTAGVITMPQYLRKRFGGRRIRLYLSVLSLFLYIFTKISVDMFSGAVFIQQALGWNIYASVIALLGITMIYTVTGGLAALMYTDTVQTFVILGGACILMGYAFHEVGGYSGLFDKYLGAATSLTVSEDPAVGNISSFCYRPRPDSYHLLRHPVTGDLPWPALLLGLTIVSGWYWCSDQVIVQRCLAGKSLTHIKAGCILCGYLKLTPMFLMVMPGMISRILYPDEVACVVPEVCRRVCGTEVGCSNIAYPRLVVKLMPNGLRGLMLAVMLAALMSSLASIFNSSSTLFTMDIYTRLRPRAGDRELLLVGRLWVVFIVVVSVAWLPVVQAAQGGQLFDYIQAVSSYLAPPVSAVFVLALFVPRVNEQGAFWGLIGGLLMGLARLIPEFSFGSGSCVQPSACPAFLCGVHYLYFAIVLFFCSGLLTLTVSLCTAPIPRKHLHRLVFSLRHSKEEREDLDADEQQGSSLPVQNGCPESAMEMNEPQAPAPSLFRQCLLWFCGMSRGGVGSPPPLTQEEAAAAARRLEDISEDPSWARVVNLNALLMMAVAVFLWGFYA
Conditions: as stated in Patent Document 1

Inhibitory activity against SGLT2: excellent inhibitory activity
Compound: CCc1ccc(Cc2ccc3c(c2)[C@]2(OC3)O[C@H](CO)[C@@H](O)[C@H](O)[C@H]2O)cc1 [tofogliflozin, 1,1-Anhydro-1-C-[5-(4-ethylphenyl)methyl-2-(hydroxymethyl)phenyl]-β-D-glucopyranose]
